Experiments:
[1] = molecular target: T1, ΔPAS mutant EAG1 channels (deletion of PAS domain residues 2 to 130) (Mus musculus, UniProt Q60603); assay: TEVC recording, imipramine inhibition, ΔPAS mutant; assay type: cell-based; settings: ΔPAS mutant EAG1 channel, +50 mV
T1 construct: expressed in transfected cells; host or cells: Xenopus laevis oocytes injected with cRNA
T1 sequence (Q60603 with tags, fused parts or gaps): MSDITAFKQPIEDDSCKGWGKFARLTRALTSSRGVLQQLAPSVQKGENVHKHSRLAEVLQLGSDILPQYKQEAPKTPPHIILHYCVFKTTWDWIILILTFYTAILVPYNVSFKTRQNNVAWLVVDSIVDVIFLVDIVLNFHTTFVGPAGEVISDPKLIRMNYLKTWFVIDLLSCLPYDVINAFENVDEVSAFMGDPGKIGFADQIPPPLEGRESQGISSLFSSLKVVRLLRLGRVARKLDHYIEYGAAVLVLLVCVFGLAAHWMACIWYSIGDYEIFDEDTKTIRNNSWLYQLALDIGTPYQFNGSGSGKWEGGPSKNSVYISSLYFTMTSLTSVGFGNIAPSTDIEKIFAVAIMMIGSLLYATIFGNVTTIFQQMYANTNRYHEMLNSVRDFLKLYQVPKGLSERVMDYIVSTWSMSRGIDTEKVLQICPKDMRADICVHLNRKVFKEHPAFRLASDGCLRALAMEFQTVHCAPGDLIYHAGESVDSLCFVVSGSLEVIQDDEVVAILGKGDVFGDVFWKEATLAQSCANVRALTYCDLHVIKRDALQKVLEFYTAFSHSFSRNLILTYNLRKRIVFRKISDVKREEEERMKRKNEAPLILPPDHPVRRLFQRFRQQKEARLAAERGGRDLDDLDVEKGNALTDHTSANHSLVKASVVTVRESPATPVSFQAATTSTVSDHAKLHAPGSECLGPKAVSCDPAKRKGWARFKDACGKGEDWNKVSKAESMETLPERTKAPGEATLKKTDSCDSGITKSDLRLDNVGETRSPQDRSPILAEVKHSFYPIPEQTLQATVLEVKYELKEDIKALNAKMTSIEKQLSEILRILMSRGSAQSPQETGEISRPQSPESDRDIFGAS
Text: (§1) The cDNA encoding wild-type (WT) mouse EAG1 channels in pGH19 vector was kindly provided by G. Robertson (University of Wisconsin-Madison, Madison, WI). The mutant ΔPAS EAG1 channel in pGH19 with the deletion of the PAS domain residues 2 to 130 was generated by Bio Basic Inc and verified by DNA sequencing (Genewiz). Mutant EAG1 channels with single amino acid substitutions were generated by Genewiz and verified by DNA sequencing. cRNA was transcribed using the T7 mMessage mMachine kit (Thermo Fisher Scientific). Defolliculated Xenopus laevis oocytes were purchased from Ecocyte Bioscience or Xenopus1 and injected with the cRNA using a Nanoinject II oocyte injector (Drummond).
(§2) For EAG1 current recordings, oocytes were placed into a handmade chamber containing a bath solution for the current recording. The currents were recorded using a TEVC technique with OC-725C amplifier (Warner Instruments) and pClamp11 software (Molecular Devices). The signals were digitized using Digidata 1550 (Molecular Devices). Patch pipettes were pulled from borosilicate glass and had resistances of 0.7 to 1.5 MΩ. The recording (bath) solution contained 96 mM NaCl, 4 mM KCl, 0.1 mM CaCl2, 1.8 mM MgCl2, and 5 mM HEPES, pH 7.5. The pipette solution contained 3 M KCl. […]

WT EAG1 channels = molecular target: T2, WT EAG1 channels (Mus musculus, UniProt Q60603); assay: TEVC recording of EAG1 currents in Xenopus oocytes, imipramine inhibition, WT channel; assay type: cell-based; settings: IC50 for imipramine inhibition at +50 mV
T2 construct: expressed in transfected cells; host or cells: Xenopus laevis oocytes injected with cRNA
T2 sequence (Q60603 1-989): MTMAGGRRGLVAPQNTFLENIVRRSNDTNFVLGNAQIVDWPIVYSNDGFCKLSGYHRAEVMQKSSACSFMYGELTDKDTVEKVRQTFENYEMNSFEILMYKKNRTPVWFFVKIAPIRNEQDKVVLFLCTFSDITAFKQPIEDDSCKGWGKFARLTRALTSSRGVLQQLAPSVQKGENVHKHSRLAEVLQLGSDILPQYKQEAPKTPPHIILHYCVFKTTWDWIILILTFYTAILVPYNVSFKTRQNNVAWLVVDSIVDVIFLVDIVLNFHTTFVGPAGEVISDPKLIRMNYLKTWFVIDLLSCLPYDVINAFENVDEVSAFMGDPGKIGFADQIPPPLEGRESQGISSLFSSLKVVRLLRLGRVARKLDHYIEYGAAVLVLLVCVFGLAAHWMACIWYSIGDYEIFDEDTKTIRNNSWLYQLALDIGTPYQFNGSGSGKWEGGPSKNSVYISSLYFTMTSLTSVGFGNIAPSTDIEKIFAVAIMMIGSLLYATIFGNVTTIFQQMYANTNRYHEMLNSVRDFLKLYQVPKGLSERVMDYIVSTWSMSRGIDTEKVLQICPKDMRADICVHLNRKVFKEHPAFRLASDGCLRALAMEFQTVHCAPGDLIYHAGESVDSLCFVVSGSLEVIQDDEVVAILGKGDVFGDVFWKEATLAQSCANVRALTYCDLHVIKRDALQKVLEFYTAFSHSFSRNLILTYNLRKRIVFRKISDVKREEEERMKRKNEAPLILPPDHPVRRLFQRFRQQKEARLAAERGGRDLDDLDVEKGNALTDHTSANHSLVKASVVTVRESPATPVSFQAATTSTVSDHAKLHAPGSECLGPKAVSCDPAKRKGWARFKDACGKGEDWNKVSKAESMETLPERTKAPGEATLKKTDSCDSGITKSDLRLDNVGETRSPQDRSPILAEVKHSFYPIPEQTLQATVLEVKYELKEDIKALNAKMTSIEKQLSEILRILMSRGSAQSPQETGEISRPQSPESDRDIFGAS
Text: as §1, §2

CN(C)CCCN1c2ccccc2CCc2ccccc21 [imipramine]
IC50 [1]: 109 ± 12.6 µM | IC50 (WT EAG1 channels): 58.1 ± 9.7 µM

Source: paper PMC10687071 (The Journal of Biological Chemistry, 2023)
